The values that follow come from patent publication US20240209028A1, “CNP COMPOUNDS” (priority 2022, published 2024).

In data set [1] the target is T1, human natriuretic peptide receptor 2 (hNPR2) (Homo sapiens, UniProt P20594).
T1 construct: expressed in transfected cells; host or cells: HEK293 (ATCC CRL-1573), clone 35, co-transfected with pGloSensor-42F
T1 sequence (P20594 23-1047): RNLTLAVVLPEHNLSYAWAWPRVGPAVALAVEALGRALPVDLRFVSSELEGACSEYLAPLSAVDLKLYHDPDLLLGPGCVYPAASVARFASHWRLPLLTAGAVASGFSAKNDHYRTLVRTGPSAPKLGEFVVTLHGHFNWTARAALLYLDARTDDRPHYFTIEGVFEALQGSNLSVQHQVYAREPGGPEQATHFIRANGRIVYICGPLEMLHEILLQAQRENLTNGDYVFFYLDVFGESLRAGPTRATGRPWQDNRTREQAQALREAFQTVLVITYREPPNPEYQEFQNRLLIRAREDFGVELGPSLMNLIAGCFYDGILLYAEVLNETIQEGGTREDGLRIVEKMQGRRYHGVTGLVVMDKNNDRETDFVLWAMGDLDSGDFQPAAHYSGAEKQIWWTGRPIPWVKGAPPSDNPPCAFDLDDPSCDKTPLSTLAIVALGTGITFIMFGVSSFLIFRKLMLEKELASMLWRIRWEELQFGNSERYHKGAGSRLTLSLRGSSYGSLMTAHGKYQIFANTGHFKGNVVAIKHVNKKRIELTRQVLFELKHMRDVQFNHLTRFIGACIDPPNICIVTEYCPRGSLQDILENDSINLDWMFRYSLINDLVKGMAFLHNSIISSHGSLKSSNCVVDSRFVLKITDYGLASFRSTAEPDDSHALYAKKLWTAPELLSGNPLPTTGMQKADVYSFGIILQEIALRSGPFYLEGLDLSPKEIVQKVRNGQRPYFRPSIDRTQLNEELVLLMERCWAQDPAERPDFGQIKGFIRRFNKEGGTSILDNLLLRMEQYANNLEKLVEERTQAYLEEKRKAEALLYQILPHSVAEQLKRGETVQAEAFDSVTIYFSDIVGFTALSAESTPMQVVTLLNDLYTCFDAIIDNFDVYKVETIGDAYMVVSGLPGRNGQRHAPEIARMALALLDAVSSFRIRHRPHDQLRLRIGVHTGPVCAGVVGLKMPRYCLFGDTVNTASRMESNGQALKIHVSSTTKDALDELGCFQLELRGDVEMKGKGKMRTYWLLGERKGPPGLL
Put plainly: In vitro hNPR2 activity assay (cGMP GloSensor reporter, HEK293). Conditions: potency relative to CNP22 (0065). The class given is cell-based. A digest of the protocol:
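Potency is the EC50 from a four-parameter logistic fit, also expressed relative to the in-plate CNP22 control (×100), with at least two replicates. Compounds (ten concentrations, […], HSA-free diluent with 1% OVA, 0.01% Tween20) were incubated 30 min at 37 °C on HEK293 cells co-expressing hNPR2 and a GloSensor cGMP luciferase. Luminescence detected with Bright-Glo.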

A short description of data set [2]: Solubility of CNP compounds at pH 4.0 and pH 6.5. The class given is physicochemical. Conditions: 8 mM sodium phosphate, 23 mg/mL glycerol, pH 6.5, room temperature; read-out: Solubility at pH 6.5. On the procedure:
In order to assess the suitability of CNP compounds for a soluble liquid formulation, the solubility of CNP compounds in pharmaceutically relevant buffers were measured. Solubility at two different pH-levels (pH 4.0 and pH 6.5) was examined as pH is expected to affect solubility.
Preparation of pH 4.0 samples: The pH 4.0 samples of the CNP compounds were prepared by mixing freeze dried peptide with a pH 4.0 5 mM sodium acetate, 250 mM glycerol buffer at room temperature to a nominal concentration of at least 4000-5000 nmol/mL. The pH of the samples was measured and adjusted to pH 4.0 and the samples were allowed to equilibrate at room temperature until next day if not fully dissolved.
Preparation of pH 6.5 samples: The pH 6.5 samples of the CNP compounds were prepared by dissolving the freeze dried peptide in water. While stirring, a part of the peptide solution was transferred to a buffer consisting of 41 mM sodium phosphate and 118 mg/mL glycerol, pH 7.5-8.0, followed by addition of diluted sodium hydroxide followed by another part of the peptide solution and further addition of diluted sodium hydroxide. This procedure was repeated until all of the peptide solution had been added where a nominal concentration of at least 4000-5000 nmol/mL had been reached and the buffer composition was 8 mM sodium phosphate, 23 mg/mL glycerol. The pH of the samples were measured and adjusted to pH 6.5 and the samples were allowed to equilibrate at room temperature until next day if not fully dissolved.
Procedure: Samples at pH 4.0 were prepared as described above and the compound concentration in the supernatant was determined using CAD (Method F, CAD02).
Samples at pH 6.5 were prepared as described above and peptide concentration in the supernatant was determined by CAD (Method F, CAD02).

≈ marks a conversion by molar mass, not a printed value. Starred links: 1 amine or outer side, 2 acyl side, 3 side chain; linkers in the order of their positions; H or OH if unused. Positions of bridges follow the written chain, without caps; N, C: chain ends. Residues, ends and D or L forms follow the SMILES beside them. *: point of attachment. C18 diacid = O=C(O)CCCCCCCCCCCCCCCCC(=O)*; γGlu = O=C(O)[C@H](CCC(=O)[*:2])N[*:1]; AEEA = NCCOCCOCC(=O)O

On to `CC[C@H](C)[C@@H]1NC(=O)[C@H](CCCNC(=N)N)NC(=O)[C@H](CC(=O)O)NC(=O)[C@H](CC(C)C)NC(=O)[C@@H]2CCCN2C(=O)[C@H](CC(C)C)NC(=O)CNC(=O)[C@H](Cc2ccccc2)NC(=O)[C@@H](NC(=O)CNC(=O)[C@H](CCCCN)NC(=O)[C@H](CO)NC(=O)[C@H](CC(C)C)NC(=O)CNC(=O)[C@H](CCCCN)NC(=O)[C@H](CCCCN)NC(=O)[C@H](CCC(N)=O)NC(=O)[C@H](C)NC(=O)CNC(=O)[C@H](CCC(=O)O)NC(=O)[C@H](Cc2ccc(O)cc2)NC(=O)COCCOCCNC(=O)COCCOCCNC(=O)COCCOCCNC(=O)COCCOCCNC(=O)CC[C@H](NC(=O)CCCCCCCCCCCCCCCCC(=O)O)C(=O)O)CSSC[C@@H](C(=O)O)NC(=O)CNC(=O)[C@H](CC(C)C)NC(=O)CNC(=O)[C@H](CO)NC(=O)[C@H](CC(C)C)NC(=O)[C@H](CO)NC(=O)CNC1=O` [compound 1375] ({C18 diacid-γGlu-AEEA-AEEA-AEEA-AEEA}-YEGAQKKGLSKGCFGLPLDRIGSLSGLGC-OH; disulfide 13-29; C-terminus assumed), for which the “hNPR2 0% HSA. [EC50% rel CNP]” value in data set [1] worked out at 16.2%. In addition, the solubility (usually the dissolved amount per volume that the medium holds) in data set [2] was found to be 3.13 mM (≈ 12.4 mg/mL).
Regarding `CC[C@H](C)[C@@H]1NC(=O)[C@H](CCCNC(=N)N)NC(=O)[C@H](CC(=O)O)NC(=O)[C@H](CC(C)C)NC(=O)[C@@H]2CCCN2C(=O)[C@H](CC(C)C)NC(=O)CNC(=O)[C@H](Cc2ccccc2)NC(=O)[C@@H](NC(=O)CNC(=O)[C@H](CCCCN)NC(=O)[C@H](CO)NC(=O)CNC(=O)CNC(=O)[C@H](CCCCN)NC(=O)[C@H](CCCCN)NC(=O)[C@H](CCC(N)=O)NC(=O)[C@H](C)NC(=O)CNC(=O)[C@H](CCC(=O)O)NC(=O)[C@H](Cc2ccc(O)cc2)NC(=O)COCCOCCNC(=O)COCCOCCNC(=O)CC[C@H](NC(=O)CCCCCCCCCCCCCCCCC(=O)O)C(=O)O)CSSC[C@@H](C(=O)O)NC(=O)CNC(=O)[C@H](CC(C)C)NC(=O)CNC(=O)[C@H](CO)NC(=O)[C@H](CC(C)C)NC(=O)[C@H](CO)NC(=O)CNC1=O` [compound 1377] ({C18 diacid-γGlu-AEEA-AEEA}-YEGAQKKGGSKGCFGLPLDRIGSLSGLGC-OH; disulfide 13-29), the “hNPR2 0% HSA. [EC50% rel CNP]” value in data set [1] is on record as 28.2%. Besides, the solubility in data set [2] is 0.443 mM (≈ 1.6 mg/mL).
Take `CC[C@H](C)[C@@H]1NC(=O)[C@H](CCCNC(=N)N)NC(=O)[C@H](CC(=O)O)NC(=O)[C@H](CC(C)C)NC(=O)[C@@H]2CCCN2C(=O)[C@H](CC(C)C)NC(=O)CNC(=O)[C@H](Cc2ccccc2)NC(=O)[C@@H](NC(=O)CNC(=O)[C@H](CO)NC(=O)[C@H](CO)NC(=O)[C@H](CC(C)C)NC(=O)CNC(=O)[C@H](CCCCN)NC(=O)[C@H](CCCCN)NC(=O)[C@H](CCC(N)=O)NC(=O)[C@H](C)NC(=O)CNC(=O)[C@H](CCC(=O)O)NC(=O)[C@H](Cc2ccc(O)cc2)NC(=O)CNC(=O)CNC(=O)CNC(=O)COCCOCCNC(=O)COCCOCCNC(=O)CC[C@H](NC(=O)CCCCCCCCCCCCCCCCC(=O)O)C(=O)O)CSSC[C@@H](C(=O)O)NC(=O)CNC(=O)[C@H](CC(C)C)NC(=O)CNC(=O)[C@H](CO)NC(=O)[C@H](CC(C)C)NC(=O)[C@H](CO)NC(=O)CNC1=O` [compound 1378] ({C18 diacid-γGlu-AEEA-AEEA}-GGGYEGAQKKGLSSGCFGLPLDRIGSLSGLGC-OH; disulfide 16-32): in data set [1], the “hNPR2 0% HSA. [EC50% rel CNP]” value came out at 28.6%. For the same compound, the solubility in data set [2] was found to be 8.92 mM (≈ 33.9 mg/mL).
